Source: ChEMBL document CHEMBL1145864, “Synthesis and structure-activity relationship of a new series of COX-2 selective inhibitors: 1,5-diarylimidazoles” (J Med Chem, 2003)

What was measured:
[1] = target: Prostaglandin G/H synthase 1 (Homo sapiens, UniProt P23219); assay type: cell-based, U-937
Description: In vitro inhibitory activity against human Prostaglandin G/H synthase 1 (COX-1) in U-937 cells

[2] = target: T1, Prostaglandin G/H synthase 2 (Homo sapiens) (UniProt P35354); conditions: Blood; at 10 µM
T1 sequence (whole entry): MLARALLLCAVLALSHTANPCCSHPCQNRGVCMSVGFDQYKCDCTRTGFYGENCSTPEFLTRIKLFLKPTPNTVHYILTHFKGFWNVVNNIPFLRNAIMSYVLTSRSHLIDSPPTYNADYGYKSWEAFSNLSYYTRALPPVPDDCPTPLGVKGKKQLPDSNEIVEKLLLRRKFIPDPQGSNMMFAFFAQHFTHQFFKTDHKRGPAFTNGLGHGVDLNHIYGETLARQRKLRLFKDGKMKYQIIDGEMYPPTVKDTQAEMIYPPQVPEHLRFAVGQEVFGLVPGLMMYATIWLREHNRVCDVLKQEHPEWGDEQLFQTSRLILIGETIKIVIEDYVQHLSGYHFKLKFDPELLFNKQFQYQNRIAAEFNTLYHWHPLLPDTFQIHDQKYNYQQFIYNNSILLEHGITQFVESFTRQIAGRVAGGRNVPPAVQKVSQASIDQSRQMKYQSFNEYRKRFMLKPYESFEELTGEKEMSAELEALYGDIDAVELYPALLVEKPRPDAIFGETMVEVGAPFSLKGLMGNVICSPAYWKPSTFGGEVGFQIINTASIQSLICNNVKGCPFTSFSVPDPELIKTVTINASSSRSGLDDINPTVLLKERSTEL
Description: Inhibition of Prostaglandin G/H synthase 2 (COX-2) in human whole blood at 10 uM

[3] = target: T1, Prostaglandin G/H synthase 2 (Homo sapiens); conditions: Blood; at 1 µM
Rattus norvegicus = experiment: In vivo anti-inflammatory activity determined by rat carrageenan paw edema method at 10 mg/kg perorally; assay type: functional; conditions: route oral

Sequence of Prostaglandin G/H synthase 1 (P23219 whole entry): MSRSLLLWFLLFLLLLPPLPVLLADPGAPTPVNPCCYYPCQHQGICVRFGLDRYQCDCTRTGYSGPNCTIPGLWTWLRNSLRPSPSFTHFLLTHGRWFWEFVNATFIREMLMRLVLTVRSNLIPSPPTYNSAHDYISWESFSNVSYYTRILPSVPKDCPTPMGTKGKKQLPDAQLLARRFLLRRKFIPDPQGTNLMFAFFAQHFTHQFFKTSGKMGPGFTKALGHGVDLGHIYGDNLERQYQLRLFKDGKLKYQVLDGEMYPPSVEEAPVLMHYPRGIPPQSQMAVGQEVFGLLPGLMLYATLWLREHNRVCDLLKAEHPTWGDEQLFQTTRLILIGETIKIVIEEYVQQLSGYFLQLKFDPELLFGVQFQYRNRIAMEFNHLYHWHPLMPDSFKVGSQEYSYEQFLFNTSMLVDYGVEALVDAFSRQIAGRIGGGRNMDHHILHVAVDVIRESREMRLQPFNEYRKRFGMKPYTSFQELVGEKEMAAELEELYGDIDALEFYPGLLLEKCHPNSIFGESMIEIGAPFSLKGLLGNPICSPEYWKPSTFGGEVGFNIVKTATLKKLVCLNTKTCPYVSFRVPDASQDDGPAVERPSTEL

Compound	IC50 [1]	inhibition [2]	inhibition [3]	inhibition in vivo at 10 mg/kg (Rattus norvegicus)
CCS(=O)(=O)c1ccc(-c2c(Cl)ncn2-c2ccc(S(C)(=O)=O)cc2)cc1	> 10 µM			
CS(=O)(=O)c1ccc(-n2cncc2-c2ccc(F)cc2)cc1	> 10 µM	56.9%		
CS(=O)(=O)c1ccc(-n2cnc(Cl)c2-c2cc(F)cc(F)c2)cc1	> 10 µM	61.6%		
CC(C)c1ccc(-c2c(Cl)ncn2-c2ccc(S(C)(=O)=O)cc2)cc1	> 10 µM	100%	70%	17%
CCCCCc1ncn(-c2ccc(S(C)(=O)=O)cc2)c1-c1ccc(F)cc1	> 10 µM	64.4%		
CC1Cc2cc(-c3c(Cl)ncn3-c3ccc(S(C)(=O)=O)cc3)ccc2O1 (stereo not given)	> 10 µM	59.9%		
Cc1nc(Cl)n(-c2ccc(F)cc2)c1-c1ccc(S(C)(=O)=O)cc1	> 10 µM	42.6%		
COc1cc(-c2c(Cl)ncn2-c2ccc(S(C)(=O)=O)cc2)ccc1C	> 10 µM	100%	77.1%	9.2%
CCc1ncn(-c2ccc(S(C)(=O)=O)cc2)c1-c1ccc(F)cc1	> 10 µM	3.8%		
CS(=O)(=O)c1ccc(-c2cnc(CO)n2-c2ccc(F)cc2)cc1	> 10 µM	8.1%		
CS(=O)(=O)c1ccc(-n2c(CO)nc(Cl)c2-c2ccc(F)cc2)cc1	> 10 µM	2.4%		
CS(=O)(=O)c1ccc(-c2cncn2-c2ccc(F)cc2)cc1	> 10 µM	63.4%		
C=CCc1ncn(-c2ccc(S(C)(=O)=O)cc2)c1-c1ccc(F)cc1	> 10 µM	3.4%		
CCOc1ccc(-c2c(Cl)ncn2-c2ccc(S(C)(=O)=O)cc2)cc1	> 10 µM	100%	100%	16.3%
CCCOc1ccc(-c2c(Cl)ncn2-c2ccc(S(C)(=O)=O)cc2)cc1	> 10 µM		0%	
CS(=O)(=O)c1ccc(-n2cnc(Cl)c2-c2cc(Br)co2)cc1	> 1 µM			
COc1ccc(-c2c(Cl)ncn2-c2ccc(S(C)(=O)=O)cc2)c(F)c1	0.11 µM	100%	100%	33%
Cc1ncc(-c2ccc(S(C)(=O)=O)cc2)n1-c1ccc(F)cc1	> 10 µM	68%		21.7%
CS(=O)(=O)c1ccc(-n2cnc(Cc3ccccc3)c2-c2ccc(F)cc2)cc1	> 10 µM	60.5%		
Cc1nc(Cl)c(-c2ccc(F)cc2)n1-c1ccc(S(C)(=O)=O)cc1	> 10 µM	27.5%		
CS(=O)(=O)c1ccc(-n2cnc(Cl)c2-c2cc3ccccc3o2)cc1	> 1 µM			
CS(=O)(=O)c1ccc(-n2cnc(Cl)c2-c2ccccc2F)cc1	100 µM	100%	66.2%	21.5%
COc1ccc(-c2c(Cl)ncn2-c2ccc(S(N)(=O)=O)cc2)cc1Cl	1.2 µM	99.9%		24%
CS(=O)(=O)c1ccc(-n2cnc(Cl)c2-c2cccnc2)cc1	> 10 µM	100%	74.9%	19%
COc1ccc(-c2c(Cl)ncn2-c2ccc(S(C)(=O)=O)cc2)cc1	1.3 µM	100%	100%	33.4%
CCOc1ccc(-c2c(Cl)ncn2-c2ccc(S(N)(=O)=O)cc2)cc1Cl	15.5 µM	99.9%	26.8%	18.5%

Compound	IC50 [1]	inhibition [2]	inhibition [3]	inhibition in vivo at 10 mg/kg (Rattus norvegicus)
CS(=O)(=O)c1ccc(-c2cnc(CF)n2-c2ccc(F)cc2)cc1	> 10 µM	16.8%		
CC(=O)Nc1ccc(-c2c(Cl)ncn2-c2ccc(S(C)(=O)=O)cc2)cc1	> 10 µM			
CS(=O)(=O)c1ccc(-n2cnc(Cl)c2-c2ccc(N)cc2)cc1	> 10 µM	71.6%		15.3%
COc1c(Cl)cc(-c2c(Cl)ncn2-c2ccc(S(C)(=O)=O)cc2)cc1Cl	> 10 µM	99.8%	37.3%	16.5%
CC(C)Oc1ccc(-c2c(Cl)ncn2-c2ccc(S(C)(=O)=O)cc2)cc1	> 10 µM			
CCOc1cc(OCC)cc(-c2c(Cl)ncn2-c2ccc(S(C)(=O)=O)cc2)c1	> 10 µM	0%		
CCSc1ccc(-c2c(Cl)ncn2-c2ccc(S(C)(=O)=O)cc2)cc1	> 10 µM	97.3%	76.7%	12.3%
CS(=O)(=O)c1ccc(-n2c(-c3ccc(F)cc3)cnc2C(=O)c2ccccc2)cc1	> 10 µM	0%		
CS(=O)(=O)c1ccc(-c2c(Br)ncn2-c2ccc(F)cc2)cc1	> 10 µM	36%		
CS(=O)(=O)c1ccc(-c2c(Cl)nc(Cl)n2-c2ccc(F)cc2)cc1	> 10 µM	51.6%		
CSc1ccc(-c2c(Cl)ncn2-c2ccc(S(C)(=O)=O)cc2)cc1	0.9 µM	88.5%	49%	21.7%
Cc1cc(-c2c(Cl)ncn2-c2ccc(S(C)(=O)=O)cc2)ccc1Cl	4 µM	100%		
CCOc1ccc(-c2c(Cl)ncn2-c2ccc(S(C)(=O)=O)cc2)cc1F	> 10 µM	95.2%	96.5%	14.1%
CS(=O)(=O)c1ccc(-n2cnc(Cl)c2-c2ccc(F)cc2F)cc1	23.8 µM	100%	79.6%	8.6%
CCCc1ccc(-c2c(Cl)ncn2-c2ccc(S(C)(=O)=O)cc2)cc1	> 10 µM	91.9%	60%	0%
CS(=O)(=O)c1ccc(-c2c(Cl)ncn2-c2ccc(F)cc2)cc1	> 10 µM	15.3%		
CS(=O)(=O)c1ccc(-n2c(-c3ccc(F)cc3)cnc2CO)cc1	> 10 µM	27.4%		
CS(=O)(=O)c1ccc(-n2c(Cl)nc(Cl)c2-c2ccc(F)cc2)cc1	> 10 µM	0%		
CCOc1ccc(-c2c(Cl)ncn2-c2ccc(S(N)(=O)=O)cc2)cc1F	76 µM	100%	57%	30.3%
NS(=O)(=O)c1ccc(-n2cnc(Cl)c2-c2ccc(Cl)nc2)cc1	> 10 µM	97.6%	19.6%	18.1%
CS(=O)(=O)c1ccc(-c2cnc(C=O)n2-c2ccc(F)cc2)cc1	> 10 µM	70.9%		27.5%
COC(=O)c1ncc(-c2ccc(S(C)(=O)=O)cc2)n1-c1ccc(F)cc1	> 10 µM	39.1%		
CS(=O)(=O)c1ccc(-n2cnc(Cl)c2-c2cccc(F)c2)cc1	> 10 µM	100%	51.9%	22.8%
CS(=O)(=O)c1ccc(-n2c(-c3ccc(F)cc3)cnc2Cl)cc1	> 10 µM			
CS(=O)(=O)c1ccc(-c2cnc(C(=O)c3ccccc3)n2-c2ccc(F)cc2)cc1	> 10 µM	95%		
CS(=O)(=O)c1ccc(-n2cnc(Cl)c2-c2ccc(OC(F)(F)F)cc2)cc1	> 10 µM			
